# Assay results from publication PMC11954892, “β-Carotene alleviates substrate inhibition caused by asymmetric cooperativity” (Nature Communications, 2025).
# Experiments:
# [1] = molecular target: T1, NbUGT72AY1 (Nicotiana benthamiana, UniProt A0A8K1ZRH3); assay: X-ray co-crystal structure (ternary complex with scopoletin); format: binding
# T1 sequence (A0A8K1ZRH3 1-477): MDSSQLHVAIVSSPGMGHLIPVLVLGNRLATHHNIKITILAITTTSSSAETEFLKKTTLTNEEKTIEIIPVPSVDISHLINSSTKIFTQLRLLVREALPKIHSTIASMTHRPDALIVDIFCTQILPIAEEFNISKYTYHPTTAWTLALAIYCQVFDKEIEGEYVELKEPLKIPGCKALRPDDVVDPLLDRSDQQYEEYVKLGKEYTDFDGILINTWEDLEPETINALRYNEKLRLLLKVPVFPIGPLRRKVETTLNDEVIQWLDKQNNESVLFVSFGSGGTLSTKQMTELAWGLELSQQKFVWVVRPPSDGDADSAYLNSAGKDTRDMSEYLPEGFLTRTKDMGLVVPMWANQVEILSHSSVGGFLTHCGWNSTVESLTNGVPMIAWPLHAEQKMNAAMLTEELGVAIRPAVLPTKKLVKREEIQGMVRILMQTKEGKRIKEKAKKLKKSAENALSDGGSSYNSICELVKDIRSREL
# [2] = molecular target: T1, NbUGT72AY1; assay: UDP-Glo glucosyltransferase assay, purified enzyme (reactivation of substrate-inhibited enzyme); format: biochemical; parameters: N-terminal GST tag
# [3] = molecular target: T1, NbUGT72AY1; assay: HDX-MS; inhibition of UDPG glucohydrolase and relief of substrate inhibition (UDP-Glo, purified enzyme); format: binding
# [4] = molecular target: T1, NbUGT72AY1; assay: ITC ([…] stoichiometry); co-crystal structures; HDX-MS; enzyme kinetics; format: binding
# [5] = molecular target: T1, NbUGT72AY1; assay: HDX-MS; CD; inhibition of UDPG glucohydrolase and relief of substrate inhibition (UDP-Glo, purified enzyme); format: binding
smiles,measurement,setting,value
O=c1ccn([C@@H]2O[C@H](COP(=O)(O)OP(=O)(O)O[C@H]3O[C@H](CO)[C@@H](O)[C@H](O)[C@H]3F)[C@@H](O)[C@H]2O)c(=O)[nH]1 [UDP2FG],X-ray co-crystal structure (ternary complex with scopoletin),[1],ternary complex V (NbUGT72AY1•scopoletin/UDP2FG: 9J9K) most of the protein residues are visible in the electron density maps
CC(C)=CCC/C(C)=C/C=C/C(C)=C/C=C/C(C)=C/C=C/C=C(C)/C=C/C=C(C)/C=C/C=C(\C)CCC=C(C)C [lycopene],"UDP-Glo glucosyltransferase assay, purified enzyme (reactivation of substrate-in)",[2],Even acyclic lycopene shows a concentration-dependent reactivation of the substrate-inhibited enzyme.
CC1=C(/C=C/C(C)=C/C=C/C(C)=C/CO)C(C)(C)CCC1 [retinol],HDX-MS; inhibition of UDPG glucohydrolase and relief of substrate inhibition (UD),[3],"concentration-dependent reactivation of the substrate-inhibited enzyme by β-carotene, β-apo-8’-carotenal, and retinol was detected"
COc1cc2ccc(=O)oc2cc1O [scopoletin],Kd,[4],4.5 ± 1.1 µM
CC1=C(/C=C/C(C)=C/C=C/C(C)=C/C=C/C=C(C)/C=C/C=C(\C)C=O)C(C)(C)CCC1 [β-apo-8’-carotenal],HDX-MS; inhibition of UDPG glucohydrolase and relief of substrate inhibition (UD),[3],"concentration-dependent reactivation of the substrate-inhibited enzyme by β-carotene, β-apo-8’-carotenal, and retinol was detected"
CC1=C(/C=C/C(C)=C/C=C/C(C)=C/C=C/C=C(C)/C=C/C=C(C)/C=C/C2=C(C)CCCC2(C)C)C(C)(C)CCC1 [β-carotene],HDX-MS; CD; inhibition of UDPG glucohydrolase and relief of substrate inhibition,[5],with β-carotene being the most potent in suppressing glucohydrolase activity in accordance with its strong inhibition of SI
